# pIC50: −log10 of the molar value.
# How the values were obtained:
# [1] = test system: Mycobacterium tuberculosis; assay: Antitubercular activity against replicating Mycobacterium tuberculosis H37Rv ATCC 27294 after 1 week by microplate alamar blue assay; assay type: functional; conditions: H37Rv ATCC 27294, 168 h
# [2] = biological target: Cholinesterase (Equus caballus, UniProt P81908); assay: Inhibition of equine serum BChE by colorimetric Ellman's assay; conditions: for pIC50: read-out: IC50; for IC50: read-out: pIC50 (converted)
# Sequence of Cholinesterase (P81908 whole entry): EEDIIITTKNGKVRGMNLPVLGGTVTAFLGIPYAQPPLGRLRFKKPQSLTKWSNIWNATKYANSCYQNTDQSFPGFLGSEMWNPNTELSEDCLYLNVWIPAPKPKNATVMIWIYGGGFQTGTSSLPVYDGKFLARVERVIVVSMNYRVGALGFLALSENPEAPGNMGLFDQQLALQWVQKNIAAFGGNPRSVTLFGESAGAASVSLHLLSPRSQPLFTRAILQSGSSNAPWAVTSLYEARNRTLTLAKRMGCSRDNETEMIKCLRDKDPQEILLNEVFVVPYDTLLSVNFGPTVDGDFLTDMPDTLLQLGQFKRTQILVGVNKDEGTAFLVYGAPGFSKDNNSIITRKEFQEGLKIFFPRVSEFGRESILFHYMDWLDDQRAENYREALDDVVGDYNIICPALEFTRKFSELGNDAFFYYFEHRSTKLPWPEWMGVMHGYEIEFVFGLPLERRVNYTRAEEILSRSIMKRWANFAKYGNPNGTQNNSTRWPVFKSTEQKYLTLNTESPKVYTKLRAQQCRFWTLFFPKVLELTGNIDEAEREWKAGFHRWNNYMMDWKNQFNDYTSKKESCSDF
# [3] = test system: Mycobacterium tuberculosis; assay: Antitubercular activity against replicating Mycobacterium tuberculosis H37Rv ATCC 27294 at 100 ug/ml after 1 week by microplate alamar blue assay; assay type: functional; conditions: H37Rv ATCC 27294, 168 h
# [4] = biological target: Acetylcholinesterase (Electrophorus electricus, UniProt O42275); assay: Inhibition of electric eel AChE by colorimetric Ellman's assay
# Sequence of Acetylcholinesterase (O42275 whole entry): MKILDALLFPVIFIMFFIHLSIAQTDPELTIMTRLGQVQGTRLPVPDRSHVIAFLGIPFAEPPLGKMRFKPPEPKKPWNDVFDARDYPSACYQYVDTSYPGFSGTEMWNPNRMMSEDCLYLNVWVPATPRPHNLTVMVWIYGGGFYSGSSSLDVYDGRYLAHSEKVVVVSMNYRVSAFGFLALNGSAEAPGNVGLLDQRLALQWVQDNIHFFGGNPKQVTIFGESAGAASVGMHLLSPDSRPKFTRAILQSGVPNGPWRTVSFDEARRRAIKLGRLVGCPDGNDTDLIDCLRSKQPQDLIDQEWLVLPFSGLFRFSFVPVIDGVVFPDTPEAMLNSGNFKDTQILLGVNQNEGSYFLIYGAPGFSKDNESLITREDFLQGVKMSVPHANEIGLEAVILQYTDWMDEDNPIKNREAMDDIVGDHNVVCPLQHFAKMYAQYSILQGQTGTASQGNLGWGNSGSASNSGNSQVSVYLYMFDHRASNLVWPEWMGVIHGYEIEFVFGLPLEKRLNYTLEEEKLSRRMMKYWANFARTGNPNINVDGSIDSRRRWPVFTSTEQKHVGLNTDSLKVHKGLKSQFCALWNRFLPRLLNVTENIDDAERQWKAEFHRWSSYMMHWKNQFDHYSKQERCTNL
# [5] = test system: Mycobacterium tuberculosis; assay: Antitubercular activity against replicating Mycobacterium tuberculosis H37Rv ATCC 27294 at 50 ug/ml after 1 week by microplate alamar blue assay; assay type: functional; conditions: H37Rv ATCC 27294, 168 h
# [6] = test system: Mycobacterium tuberculosis; assay: Antitubercular activity against non-replicating Mycobacterium tuberculosis H37Rv ATCC 27294 incubated 10 days under anaerobic condition measured after 28 hrs of recovery in air by luciferase based low oxygen recovery assay; assay type: functional
# [7] = test system: Mycobacterium tuberculosis; assay: Antitubercular activity against replicating Mycobacterium tuberculosis H37Rv ATCC 27294 at 20 ug/ml after 1 week by microplate alamar blue assay; assay type: functional; conditions: H37Rv ATCC 27294, 168 h
SMILES,MIC [1] [µg/mL],pIC50 [2],inhibition at 100 µg/mL [3] [%],pIC50 [4],inhibition at 50 µg/mL [5] [%],IC50 [2] [µM],MIC [6] [µg/mL],inhibition at 20 µg/mL [7] [%]
COC(=O)C1=C2Nc3ccccc3[C@@]23CCN2C[C@]4(C[C@@H]5C[C@]67CC(=O)O[C@H]6CCN6CC[C@@]8(c9cccc(OC)c9N(C4)[C@@H]58)[C@@H]67)[C@@H]4OCC[C@]4(C1)[C@H]23 [DEOXYVOBSTUSINE LACTONE],> 100,4.69,35,4.04,–,–,–,–
COC(=O)C1=C2Nc3ccccc3[C@@]23CCN2C[C@]4(C[C@@H]5C[C@]67CCO[C@H]6CCN6CC[C@@]8(c9cccc(OC)c9N(C4)[C@@H]58)[C@@H]67)[C@@H]4OCC[C@]4(C1)[C@H]23 [DEOXYVOBTUSINE],> 50,5.21,–,4.06,13,7.73,–,–
COC(=O)C1=C2Nc3ccccc3[C@@]23CCN2[C@H](O)[C@]4(C[C@@H]5C[C@]67CC(=O)O[C@H]6CCN6CC[C@@]8(c9cccc(OC)c9N(C4)[C@@H]58)[C@@H]67)[C@@H]4OCC[C@]4(C1)[C@H]23 [GLOBOSPIRAMINE],4,4.79,–,4.03,–,16.3,5.2,–
NNC(=O)c1ccncc1 [ISONIAZID],0.68,–,–,–,–,–,> 128,–
C=C(C)[C@@H]1CC[C@]2(C)CC[C@]3(C)[C@H](CC[C@@H]4[C@@]5(C)CC[C@H](O)C(C)(C)[C@@H]5CC[C@]43C)[C@@H]12 [LUPEOL],> 20,–,–,–,–,–,–,0
COc1c(N2C[C@@H]3CCCN[C@@H]3C2)c(F)cc2c(=O)c(C(=O)O)cn(C3CC3)c12 [MOXIFLOXACIN],0.83,–,–,–,–,–,33.2,–
CO[C@H]1/C=C/O[C@@]2(C)Oc3c(C)c(O)c4c(O)c(c(/C=N/N5CCN(C)CC5)c(O)c4c3C2=O)NC(=O)/C(C)=C\C=C\[C@H](C)[C@H](O)[C@@H](C)[C@@H](O)[C@@H](C)[C@H](OC(C)=O)[C@@H]1C [RIFAMPIN],0.15,–,–,–,–,–,0.84,–
COC(=O)C1=C2Nc3ccccc3[C@@]23CCN2C[C@]4(C[C@@H]5C[C@]67CC(=O)C[C@H]6CCN6CC[C@@]8(c9cccc(OC)c9N(C4)[C@@]58O)[C@@H]67)[C@@H]4OCC[C@]4(C1)[C@H]23 [VOBTUSINE LACTONE],> 50,4.74,–,4.05,13,–,–,–
